Numbered stars: 1 amine (or outer) side, 2 acyl side, 3 side chain; on linkers, the order of the positions; unused ones are H or OH. Bridge positions count the residues as written; N and C are the ends. Square brackets hold non-standard residues; d marks the D form. Peptide text beside a SMILES is read from it. * marks the point of attachment. C20 diacid = O=C(O)CCCCCCCCCCCCCCCCCCC(=O)*; γGlu = O=C(O)[C@H](CCC(=O)[*:2])N[*:1]; Hyp = O=C(O)[C@@H]1C[C@@H](O)CN1
Key:
hAM1 receptor = hAM1 receptor (Homo sapiens, UniProt O60895+Q16602); test: cAMP assay for in vitro receptor activation, hAM1-R; type: cell-based; conditions: cAMP assay, hAM1 receptor; read-out: hAM1R EC50
Sequence of hAM1 receptor (Q16602 23-461): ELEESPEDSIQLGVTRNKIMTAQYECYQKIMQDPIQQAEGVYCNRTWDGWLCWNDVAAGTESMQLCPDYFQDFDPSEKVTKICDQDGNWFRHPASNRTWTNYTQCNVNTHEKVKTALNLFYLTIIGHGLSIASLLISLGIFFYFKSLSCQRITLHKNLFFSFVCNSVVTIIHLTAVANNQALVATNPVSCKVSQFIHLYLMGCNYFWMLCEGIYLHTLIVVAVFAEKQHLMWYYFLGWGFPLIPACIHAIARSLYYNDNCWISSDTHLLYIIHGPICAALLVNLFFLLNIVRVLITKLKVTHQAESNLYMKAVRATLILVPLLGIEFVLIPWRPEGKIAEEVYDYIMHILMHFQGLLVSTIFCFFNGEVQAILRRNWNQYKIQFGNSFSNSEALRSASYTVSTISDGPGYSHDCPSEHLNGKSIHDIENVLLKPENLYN
Sequence of hAM1 receptor (O60895 43-175 partner): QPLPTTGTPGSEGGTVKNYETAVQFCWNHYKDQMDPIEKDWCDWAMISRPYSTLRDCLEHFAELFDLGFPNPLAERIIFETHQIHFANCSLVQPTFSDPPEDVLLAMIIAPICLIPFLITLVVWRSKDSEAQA
Experimental: General Protocols for cAMP Assays for Measuring In Vitro Receptor Activation
Cells stably overexpressing the hAM1 receptor were obtained from Ogeda (now Astellas Pharma), sub-cloned and a monoclonal cell-line with an appropriate assay-window was expanded, aliquoted and frozen. An aliquot was thawed and plated in DPBS with 0.05% casein and 0.5 mM IBMX as 8000 cells/well in a 384-well format.

[1] = Physical stability of peptide analogues (Thioflavin T fibrillation); type: physicochemical; conditions: maximum ThT signal normalized between hAMY maximum and buffer background; 40° C., shaking, four days; pH 7 per table title
Procedure, shortened: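 ThT fluorescence (450 nm excitation, 480 nm emission; 4 μM dye) was read every 10 min over four days at 40° C under 700 rpm shaking stress, after 1 h in pH 4 acetate or pH 7 phosphate (50 mM). Peak smoothed signal expressed as percent, scaled between buffer background and hAMY maximum.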

hAMY3 receptor = molecular target: T1, hAMY3 receptor (Homo sapiens, UniProt O60896+P30988); test: cAMP assay for in vitro receptor activation, hAMY3-R; type: cell-based; conditions: cAMP assay, hAMY3 receptor; read-out: hAMY3R EC50
T1 sequence (P30988 25-474): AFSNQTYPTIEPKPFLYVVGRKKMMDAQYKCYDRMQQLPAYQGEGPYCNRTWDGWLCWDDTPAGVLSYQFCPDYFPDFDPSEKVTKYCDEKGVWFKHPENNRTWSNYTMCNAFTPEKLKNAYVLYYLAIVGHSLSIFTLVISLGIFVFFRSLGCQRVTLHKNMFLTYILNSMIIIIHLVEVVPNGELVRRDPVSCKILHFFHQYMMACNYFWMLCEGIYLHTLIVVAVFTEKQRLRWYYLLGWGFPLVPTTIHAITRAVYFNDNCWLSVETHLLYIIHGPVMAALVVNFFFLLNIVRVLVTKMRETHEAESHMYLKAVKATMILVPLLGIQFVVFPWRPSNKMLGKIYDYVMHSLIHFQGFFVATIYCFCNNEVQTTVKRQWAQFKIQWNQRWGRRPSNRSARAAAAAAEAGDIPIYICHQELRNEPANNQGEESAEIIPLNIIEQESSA
T1 sequence (O60896 24-148 partner): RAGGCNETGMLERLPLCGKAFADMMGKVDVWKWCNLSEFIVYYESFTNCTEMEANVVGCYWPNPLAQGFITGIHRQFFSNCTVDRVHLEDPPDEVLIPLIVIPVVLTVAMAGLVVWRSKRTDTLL
Procedure, shortened: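 Graded compound concentrations were applied for 30 min at room temperature to stably hAMY3-expressing cells in DPBS, 0.05% casein, 0.5 mM IBMX; cAMP detected by TR-FRET.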

Row | Compound | EC50 (hAM1 receptor) | Max ThT signal (%) [1] | EC50 (hAMY3 receptor)
1 | CC[C@H](C)[C@H](NC(=O)[C@H](C)NC(=O)CNC(=O)[C@H](Cc1ccccc1)NC(=O)[C@H](CC(N)=O)NC(=O)[C@H](CC(N)=O)NC(=O)[C@H](CO)NC(=O)[C@H](CO)NC(=O)[C@H](Cc1c[nH]cn1)NC(=O)[C@@H](NC(=O)[C@H](CC(C)C)NC(=O)[C@H](Cc1ccccc1)NC(=O)[C@H](CC(N)=O)NC(=O)[C@H](C)NC(=O)[C@H](CC(C)C)NC(=O)[C@H](CCCNC(=N)N)NC(=O)[C@H](CCC(N)=O)NC(=O)[C@@H](NC(=O)[C@H](C)NC(=O)[C@@H]1CSSC[C@H](NC(=O)[C@@H](N)CCCCN)C(=O)N[C@@H](CC(N)=O)C(=O)N[C@@H]([C@@H](C)O)C(=O)N[C@@H](C)C(=O)N[C@@H]([C@@H](C)O)C(=O)N1)[C@@H](C)O)C(C)C)C(=O)N[C@@H](CC(C)C)C(=O)N1CCC[C@H]1C(=O)N[C@@H](CO)C(=O)N[C@H](C(=O)N[C@@H](CCCCN)C(=O)N[C@H](C(=O)NCC(=O)N[C@@H](CO)C(=O)N[C@@H](CC(N)=O)C(=O)NCC(=O)N[C@@H](Cc1ccc(O)cc1)C(N)=O)[C@@H](C)CC)[C@@H](C)O [compound 207] (H-KCNTATCATQRLANFLVHSSNNFGAILPSTKIGSNGY-NH2; disulfide 2-7; N-terminus assumed) | > 5000 nM | – | –
2 | CC[C@H](C)[C@H](NC(=O)[C@H](CCC(N)=O)NC(=O)[C@H](Cc1c[nH]cn1)NC(=O)[C@H](C)NC(=O)[C@H](CC(C)C)NC(=O)[C@H](CCCNC(=N)N)NC(=O)[C@H](CCC(N)=O)NC(=O)[C@@H](NC(=O)[C@@H](NC(=O)[C@@H]1CSSC[C@H](NC(=O)[C@H](CCCCN)NC(=O)CC[C@H](NC(=O)CCCCCCCCCCCCCCCCCCC(=O)O)C(=O)O)C(=O)N[C@@H](CC(N)=O)C(=O)N[C@@H]([C@@H](C)O)C(=O)N[C@@H](Cc2ccc(O)cc2)C(=O)N[C@@H]([C@@H](C)O)C(=O)N1)[C@@H](C)O)C(C)C)C(=O)N[C@@H](Cc1ccc(O)cc1)C(=O)N[C@@H](CCC(N)=O)C(=O)N[C@@H](Cc1ccccc1)C(=O)N[C@H](C(=O)N[C@@H](CC(=O)O)C(=O)N[C@@H](CCCCN)C(=O)N[C@@H](CC(=O)O)C(=O)N[C@@H](CCCCN)C(=O)N[C@@H](CC(=O)O)C(=O)N[C@@H](CC(N)=O)C(=O)N[C@H](C(=O)N[C@@H](C)C(=O)N1CCC[C@H]1C(=O)N1CCC[C@H]1C(=O)N[C@H](C(=O)N[C@@H](CC(N)=O)C(=O)N[C@H](C(=O)NCC(=O)N[C@@H](CO)C(=O)N[C@@H](CC(N)=O)C(=O)NCC(=O)N1C[C@H](O)C[C@H]1C(N)=O)C(C)C)[C@@H](C)O)C(C)C)[C@@H](C)O [compound 231] ({C20 diacid-γGlu}-KCNTYTCTVQRLAHQIYQFTDKDKDNVAPPTNVGSNG[Hyp]-NH2; disulfide 2-7) | > 5000 nM | – | –
3 | CC[C@H](C)[C@H](NC(=O)[C@H](CCCCN)NC(=O)[C@H](CO)NC(=O)[C@H](CCCNC(=N)N)NC(=O)[C@@H]1CCCN1C(=O)[C@H](C)NC(=O)[C@@H](NC(=O)[C@H](CC(N)=O)NC(=O)[C@H](CC(=O)O)NC(=O)[C@H](CCCCN)NC(=O)[C@H](CC(=O)O)NC(=O)[C@H](CCCCN)NC(=O)[C@H](CC(=O)O)NC(=O)[C@@H](NC(=O)[C@H](Cc1ccccc1)NC(=O)[C@H](CCC(N)=O)NC(=O)[C@@H](NC(=O)[C@H](CC(C)C)NC(=O)[C@H](Cc1ccccc1)NC(=O)[C@H](CC(N)=O)NC(=O)[C@H](C)NC(=O)[C@H](CC(C)C)NC(=O)[C@H](CCCNC(=N)N)NC(=O)[C@H](CCC(N)=O)NC(=O)[C@@H](NC(=O)[C@H](C)NC(=O)[C@@H]1CSSC[C@H](NC(=O)[C@@H](N)CCCCN)C(=O)N[C@@H](CC(N)=O)C(=O)N[C@@H]([C@@H](C)O)C(=O)N[C@@H](C)C(=O)N[C@@H]([C@@H](C)O)C(=O)N1)[C@@H](C)O)C(C)C)[C@@H](C)O)C(C)C)C(=O)N[C@@H](CO)C(=O)N1CCC[C@H]1C(=O)N[C@@H](CCC(N)=O)C(=O)NCC(=O)N[C@@H](Cc1ccc(O)cc1)C(N)=O [compound 234] (H-KCNTATCATQRLANFLVQFTDKDKDNVAPRSKISPQGY-NH2; disulfide 2-7; N-terminus assumed) | > 5000 nM | – | –
4 | CC[C@H](C)[C@H](NC(=O)[C@H](CCCCN)NC(=O)[C@H](CO)NC(=O)[C@H](CCCNC(=N)N)NC(=O)[C@@H]1CCCN1C(=O)[C@H](C)NC(=O)[C@@H](NC(=O)[C@H](CC(N)=O)NC(=O)[C@H](CC(=O)O)NC(=O)[C@H](CCCCN)NC(=O)[C@H](CC(=O)O)NC(=O)[C@H](CCCCN)NC(=O)[C@H](CC(=O)O)NC(=O)[C@@H](NC(=O)[C@H](Cc1ccccc1)NC(=O)[C@H](CCC(N)=O)NC(=O)[C@H](Cc1ccc(O)cc1)NC(=O)[C@@H](NC(=O)[C@H](CCC(N)=O)NC(=O)[C@H](Cc1c[nH]cn1)NC(=O)[C@H](C)NC(=O)[C@H](CC(C)C)NC(=O)[C@H](CCCNC(=N)N)NC(=O)[C@H](CCC(N)=O)NC(=O)[C@@H](NC(=O)[C@@H](NC(=O)[C@@H]1CSSC[C@H](NC(=O)CN)C(=O)N[C@@H](CCCNC(=N)N)C(=O)N[C@@H](Cc2ccccc2)C(=O)NCC(=O)N[C@@H]([C@@H](C)O)C(=O)N1)[C@@H](C)O)C(C)C)[C@@H](C)CC)[C@@H](C)O)C(C)C)C(=O)NCC(=O)N1CCC[C@H]1C(=O)N[C@@H](CCC(N)=O)C(=O)NCC(=O)N[C@@H](Cc1ccc(O)cc1)C(N)=O [compound 387] (H-GCRFGTCTVQRLAHQIYQFTDKDKDNVAPRSKIGPQGY-NH2; disulfide 2-7; N-terminus assumed) | – | 14.300% | 0.04 nM
5 | CC[C@H](C)[C@H](NC(=O)[C@H](CCCCN)NC(=O)[C@@H](NC(=O)[C@H](CCCNC(=N)N)NC(=O)[C@@H]1CCCN1C(=O)[C@H](C)NC(=O)[C@@H](NC(=O)[C@H](CC(N)=O)NC(=O)[C@H](CC(=O)O)NC(=O)[C@H](CCCCN)NC(=O)[C@H](CC(=O)O)NC(=O)[C@H](CCCCN)NC(=O)[C@H](CC(=O)O)NC(=O)[C@@H](NC(=O)[C@H](Cc1ccccc1)NC(=O)[C@H](CCC(N)=O)NC(=O)[C@H](Cc1ccc(O)cc1)NC(=O)[C@@H](NC(=O)[C@H](CCC(N)=O)NC(=O)[C@H](Cc1c[nH]cn1)NC(=O)[C@H](C)NC(=O)[C@H](CC(C)C)NC(=O)[C@H](CCCNC(=N)N)NC(=O)[C@H](CCC(N)=O)NC(=O)[C@@H](NC(=O)[C@@H](NC(=O)[C@@H]1CSSC[C@H](NC(=O)CN)C(=O)N[C@@H](CCCNC(=N)N)C(=O)N[C@@H](Cc2ccccc2)C(=O)NCC(=O)N[C@@H]([C@@H](C)O)C(=O)N1)[C@@H](C)O)C(C)C)[C@@H](C)CC)[C@@H](C)O)C(C)C)[C@@H](C)O)C(=O)NCC(=O)N1CCC[C@H]1C(=O)N[C@@H](CCC(N)=O)C(=O)NCC(=O)N[C@@H](Cc1ccc(O)cc1)C(N)=O [compound 391] (H-GCRFGTCTVQRLAHQIYQFTDKDKDNVAPRTKIGPQGY-NH2; disulfide 2-7; N-terminus assumed) | – | 3.700% | 0.068 nM
